Laboratory results: ChEMBL document CHEMBL1949670, “Probes for narcotic receptor mediated phenomena. 44. Synthesis of an N-substituted 4-hydroxy-5-(3-hydroxyphenyl)morphan with high affinity and selective μ-antagonist activity” (Eur J Med Chem, 2012)

How the values were obtained:
[1] = biological target: Mu-type opioid receptor (Homo sapiens) (UniProt P35372); details: CHO
Description: Antagonist activity at human mu receptor expressed in CHO cells membrane assessed as inhibition of DAMGO-induced [35S]GTPgammaS binding after 3 hrs by liquid scintillation counting

Mus musculus = test: Antinociceptive activity in sc dosed mouse; type: functional

Chain of Mu-type opioid receptor (Homo sapiens) (P35372 whole entry): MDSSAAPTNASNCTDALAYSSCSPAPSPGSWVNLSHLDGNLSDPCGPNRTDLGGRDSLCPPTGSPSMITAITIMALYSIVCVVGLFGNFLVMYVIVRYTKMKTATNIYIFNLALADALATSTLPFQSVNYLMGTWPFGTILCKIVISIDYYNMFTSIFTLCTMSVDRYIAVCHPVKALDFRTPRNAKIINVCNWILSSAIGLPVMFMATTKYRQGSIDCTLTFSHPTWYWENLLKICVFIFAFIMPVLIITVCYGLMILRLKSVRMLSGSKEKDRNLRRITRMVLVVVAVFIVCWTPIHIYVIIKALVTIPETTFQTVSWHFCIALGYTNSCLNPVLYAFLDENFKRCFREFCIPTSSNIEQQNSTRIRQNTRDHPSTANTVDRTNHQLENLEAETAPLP

## CN1CC2(OCCO2)[C@]2(c3cccc(O)c3)CCC[C@H]1C2 (racemic)
[1]
  ED50: 89 nM
  Ke: 154 nM

## Oc1cccc([C@@]23CCC[C@@H](C2)N(CCc2ccccc2)C[C@H]3O)c1 (racemic)
[1]
  Ke: 12 nM

## CN1CC[C@]23c4c5ccc(O)c4O[C@H]2[C@@H](O)CC[C@H]3[C@H]1C5 [DIHYDROMORPHINE]
Mus musculus
  ED50: 1.8 mg/kg

## CN1CC[C@]23c4c5ccc(O)c4O[C@H]2[C@@H](O)CC[C@@]3(O)[C@H]1C5 [HYDROMORPHINOL]
Mus musculus
  ED50: 1.1 mg/kg

## CN1CC[C@]23c4c5ccc(O)c4O[C@H]2[C@@H](O)C=C[C@@]3(O)[C@H]1C5
Mus musculus
  ED50: 2.9 mg/kg
